Patent US5011849A, “Compounds for treating and preventing cognitive diseases and depression and methods of making same” (Hoffmann-La Roche Inc., priority 1988, dated 1991)

Columns and labels:
MAO (substrate 5-HT) = target: T1, MAO (substrate 5-HT) (Rattus norvegicus, UniProt P21396); assay: in vitro MAO inhibition in rat brain homogenate, substrate 14C-serotonin (5-HT); format: biochemical; conditions: substrate 14C-serotonin (5-HT) 2.10^-4 Mol/l, pH 7.4, 37° C., preincubation 30 minutes, incubation 10 minutes, read-out: IC 50, 5-HT
T1 construct: 20 μl of rat brain homogenate; from tissue; host or cells: rat brain homogenate
T1 sequence (P21396 1-526): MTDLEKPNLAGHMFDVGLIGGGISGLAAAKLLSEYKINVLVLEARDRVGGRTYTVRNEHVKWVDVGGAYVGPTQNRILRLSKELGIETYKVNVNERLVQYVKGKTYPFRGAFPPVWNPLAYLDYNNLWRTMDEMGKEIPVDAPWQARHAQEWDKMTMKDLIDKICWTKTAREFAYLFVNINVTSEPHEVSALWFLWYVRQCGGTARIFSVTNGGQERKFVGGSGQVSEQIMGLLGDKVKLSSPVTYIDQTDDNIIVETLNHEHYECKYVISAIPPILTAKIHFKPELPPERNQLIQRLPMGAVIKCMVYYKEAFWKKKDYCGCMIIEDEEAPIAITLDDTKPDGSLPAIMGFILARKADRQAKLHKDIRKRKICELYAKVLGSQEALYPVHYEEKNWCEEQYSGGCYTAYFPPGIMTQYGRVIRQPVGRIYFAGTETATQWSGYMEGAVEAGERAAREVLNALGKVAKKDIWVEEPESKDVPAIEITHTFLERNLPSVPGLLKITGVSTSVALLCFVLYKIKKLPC
Procedure: (§1) The MAO inhibiting activity of the compounds in accordance with the invention can be determined using standard methods. Thus, the preparations to be tested were subjected to the in vitro test described hereinafter, which followed the method published by R. J. Wurtmann and J. A. Axelrod [Biochem. Pharmac. 12, 1439-1441 (1963)].
(§2) Isolated rat brains are homogenized in the ratio 1:4 (weight/volume) in 0.1 molar potassium phosphate buffer (pH 7.4). whereupon the homogenates are diluted in the ratio 1:4 (volume/volume) with the same buffer and stored at -20°. A mixture of the following composition is used for the incubation:
(§3) 100 μl of 1M phosphate buffer (pH 7.4);
(§4) 100 μl solubilizate of the substance to be tested in water or dimethyl sulfoxide;
(§5) 20 μl of rat brain homogenate; and as the substrate
(§6) 80 μl of ^14 C-serotonin (5-HT) or ^14 C-phenylethylamine (PEA), in each case 100,000 decays per minute, corresponding to a final concentration of 2.10^-4 Mol/l and, respectively, 2.10^-5 Mol/l.
(§7) Prior to the addition of the substrate a preincubation at 37° C. was effected for 30 minutes. The incubation (in the presence of the substrate) was also effected at 37° C. and lasted 10 minutes.
(§8) The reaction is stopped by the addition of 200 μl of 2N hydrochloric acid.
(§9) The deaminated product, depending on the use of 5-HT or of PEA as the substrate, is extracted by shaking for 10 minutes with 5 ml of diethyl ether or with 5 ml of n-heptane, whereupon the mixture is centrifuged, the aqueous phase is frozen in a dry-ice bath and the organic phase is poured into a counting glass.
(§10) The activity of the MAO in comparison to control homogenates (without substance to be tested) is determined on the basis of the β-counter value and the IC 50 is defined as that concentration of a substance to be tested which decreases the activity of the MAO in the substrate 5-HT or PEA to 50%.

MAO (substrate PEA) = target: T2, MAO (substrate PEA) (Rattus norvegicus, UniProt P19643); assay: in vitro MAO inhibition in rat brain homogenate, substrate 14C-phenylethylamine (PEA); format: biochemical; conditions: substrate 14C-phenylethylamine (PEA) 2.10^-5 Mol/l, pH 7.4, 37° C., preincubation 30 minutes, incubation 10 minutes
T2 construct: 20 μl of rat brain homogenate; from tissue; host or cells: rat brain homogenate
T2 sequence (P19643 1-520): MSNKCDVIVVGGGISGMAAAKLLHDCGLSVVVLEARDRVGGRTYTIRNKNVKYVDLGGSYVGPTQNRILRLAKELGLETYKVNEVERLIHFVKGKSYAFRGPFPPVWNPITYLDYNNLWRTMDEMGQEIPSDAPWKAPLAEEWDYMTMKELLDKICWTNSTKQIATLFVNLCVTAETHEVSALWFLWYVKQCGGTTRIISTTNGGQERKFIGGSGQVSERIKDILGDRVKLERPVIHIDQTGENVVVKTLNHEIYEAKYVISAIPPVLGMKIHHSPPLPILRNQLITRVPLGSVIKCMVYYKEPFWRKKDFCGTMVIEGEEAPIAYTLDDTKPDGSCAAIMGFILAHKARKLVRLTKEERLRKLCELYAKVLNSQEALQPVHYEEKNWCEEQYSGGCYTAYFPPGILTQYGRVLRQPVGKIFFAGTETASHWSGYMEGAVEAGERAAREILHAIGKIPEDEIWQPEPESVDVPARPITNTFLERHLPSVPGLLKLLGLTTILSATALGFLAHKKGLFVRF
Procedure: as §1, §2, §3, §4, §5, §6, §7, §8, §9, §10

Structure (SMILES) | IC50 (MAO (substrate 5-HT)) | IC50 (MAO (substrate PEA))
NCCNC(=O)c1ncsc1-c1ccccc1 [5-phenyl-4-thiazol, N-(2-aminoethyl)-5-phenyl-4-thiazolecarboxamide] | 0.02 µM | 20 µM
NCCNC(=O)c1ncsc1-c1cccc(F)c1 [5-(3-fluorophenyl)-4-thiazol, N-(2-aminoethyl)-5-(3-fluorophenyl)-4-thiazolecarboxamide] | 0.02 µM | > 10 µM
NCCNC(=O)c1ncsc1-c1cc(Cl)cc(Cl)c1 [5-(3,5-dichlorophenyl)-4-thiazol, N-(2-aminoethyl)-5-(3,5-dichlorophenyl)-4-thiazolecarboxamide] | 0.007 µM | 0.3 µM
NCCNC(=O)c1ncsc1-c1ccc(F)cc1F [5-(2,4-difluorophenyl)-4-thiazol, N-(2-aminoethyl)-5-(2,4-difluorophenyl)-4-thiazolecarboxamide] | 0.12 µM | 3.6 µM

Other lines, results leading:

IC50 (MAO (substrate 5-HT)) | IC50 (MAO (substrate PEA)) | Structure (SMILES)
< 0.01 µM | > 100 µM | NCCNC(=O)c1ncoc1-c1ccc(Cl)cc1 [5-(4-chlorophenyl)-4-oxazol, N-(2-aminoethyl)-5-(4-chlorophenyl)-4-oxazolecarboxamide]
0.06 µM | 100 µM | NCCNC(=O)c1ncsc1-c1ccc(F)cc1 [5-(4-fluorophenyl)-4-thiazol, N-(2-aminoethyl)-5-(4-fluorophenyl)-4-thiazolecarboxamide]
0.04 µM | > 10 µM | NCCNC(=O)c1ncsc1-c1ccccc1F [5-(2-fluorophenyl)-4-thiazol, N-(2-aminoethyl)-5-(2-fluorophenyl)-4-thiazolecarboxamide]
0.022 µM | 2 µM | NCCNC(=O)c1ncoc1-c1ccco1 [5-(2-furyl)-4-oxazol, N-(2-aminoethyl)-5-(2-furyl)-4-oxazolecarboxamide]
